Experimental data published in patent publication US10160747B2, “Compounds and methods for kinase modulation, and indications therefor” (Plexxikon Inc., priority 2016, dated 2018).

Each compound was assayed against T1, c-KIT (Homo sapiens, UniProt P10721) (assay: c-KIT recombinant enzyme kinase assay (AlphaScreen)). Conditions: 100 ATP, 8 pt.
T1 construct: purchased Millipore 14-559K
Assay type: biochemical
Outline: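 IC50 values are derived from reduced AlphaScreen signal as inhibitors block tyrosine phosphorylation of a biotinylated poly(Glu4-Tyr) peptide (30 nM) by recombinant kinase. FLT3 variants are run at 10 μM ATP, c-KIT at 100 μM.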

T1 sequence (P10721 26-976): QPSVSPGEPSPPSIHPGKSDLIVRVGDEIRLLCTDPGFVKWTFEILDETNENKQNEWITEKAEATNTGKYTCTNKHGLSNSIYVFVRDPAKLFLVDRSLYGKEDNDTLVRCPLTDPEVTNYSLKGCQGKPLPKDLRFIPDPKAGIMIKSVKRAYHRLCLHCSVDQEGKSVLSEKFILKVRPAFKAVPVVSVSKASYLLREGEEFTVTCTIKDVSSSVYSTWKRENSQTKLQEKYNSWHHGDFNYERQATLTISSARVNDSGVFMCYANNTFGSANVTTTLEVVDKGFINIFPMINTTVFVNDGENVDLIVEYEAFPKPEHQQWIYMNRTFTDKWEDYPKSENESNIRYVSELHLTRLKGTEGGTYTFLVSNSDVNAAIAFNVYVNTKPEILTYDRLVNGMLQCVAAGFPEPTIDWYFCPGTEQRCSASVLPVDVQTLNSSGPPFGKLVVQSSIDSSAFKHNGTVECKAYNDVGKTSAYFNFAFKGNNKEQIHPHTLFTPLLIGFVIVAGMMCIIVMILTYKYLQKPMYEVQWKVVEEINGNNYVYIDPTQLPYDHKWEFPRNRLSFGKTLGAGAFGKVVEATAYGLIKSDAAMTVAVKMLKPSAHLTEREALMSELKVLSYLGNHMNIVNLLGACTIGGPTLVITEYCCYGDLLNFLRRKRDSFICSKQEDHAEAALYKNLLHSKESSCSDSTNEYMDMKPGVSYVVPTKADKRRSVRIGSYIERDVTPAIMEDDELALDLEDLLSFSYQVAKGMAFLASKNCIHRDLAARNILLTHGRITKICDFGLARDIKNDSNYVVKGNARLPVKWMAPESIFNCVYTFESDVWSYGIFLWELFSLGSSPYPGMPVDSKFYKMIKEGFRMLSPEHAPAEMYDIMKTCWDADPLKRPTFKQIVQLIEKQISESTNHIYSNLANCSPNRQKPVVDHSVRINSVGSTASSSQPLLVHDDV

Question: How did the IC50 turn out when `COc1ncc(NC(=O)Cc2ccc(-c3cnc4[nH]nc(C5CC5)c4c3)cc2)cc1C(F)(F)F` [Compound P-0263, 2-[4-(3-cyclopropyl-1H-pyrazolo[3,4-b]pyridin-5-yl)phenyl]-N-[6-methoxy-5-(trifluoromethyl)-3-pyridyl]acetamide] was run?
Answer: The IC50 was 0.0001 to 10 µM.

Question: For `COCCn1cc(Nc2ncc(-c3ccc(CC(=O)Nc4cnc(OC)c(C(F)(F)F)c4)c(F)c3)cn2)cn1` [Compound P-0265, 2-[2-fluoro-4-[2-[[1-(2-methoxyethyl)pyrazol-4-yl]amino]pyrimidin-5-yl]phenyl]-N-[6-methoxy-5-(trifluoromethyl)-3-pyridyl]acetamide], which IC50 is on record?
Answer: The IC50 was 0.0001 to 10 µM.

Question: How did the IC50 turn out when `COCCn1cc(Nc2ncc(-c3ccc(CC(=O)Nc4cnc(Cl)c(C(F)(F)F)c4)c(F)c3)cn2)cn1` [Compound P-0266, N-[6-chloro-5-(trifluoromethyl)-3-pyridyl]-2-[2-fluoro-4-[2-[[1-(2-methoxyethyl)pyrazol-4-yl]amino]pyrimidin-5-yl]phenyl]acetamide] was run?
Answer: Its IC50 is 0.0001 to 10 µM.

Question: With `COCCn1cc(Nc2ncc(-c3ccc(CC(=O)Nc4cncc(C(F)(F)F)c4)c(F)c3)cn2)cn1` [Compound P-0267, 2-[2-fluoro-4-[2-[[1-(2-methoxyethyl)pyrazol-4-yl]amino]pyrimidin-5-yl]phenyl]-N-[5-(trifluoromethyl)-3-pyridyl]acetamide] as the compound, how does the IC50 read?
Answer: Its IC50 is 0.0001 to 10 µM.

Question: With `COCCn1cc(Nc2ncc(-c3ccc(CC(=O)Nc4ccc(C(F)(F)F)nc4)c(F)c3)cn2)cn1` [Compound P-0268, 2-[2-fluoro-4-[2-[[1-(2-methoxyethyl)pyrazol-4-yl]amino]pyrimidin-5-yl]phenyl]-N-[6-(trifluoromethyl)-3-pyridyl]acetamide] as the compound, how does the IC50 read?
Answer: Its IC50 is 0.0001 to 10 µM.

Question: `COCCn1cc(Nc2ncc(-c3ccc(CC(=O)Nc4ccc(C(F)(F)F)cn4)c(F)c3)cn2)cn1` [Compound P-0269, 2-[2-fluoro-4-[2-[[1-(2-methoxyethyl)pyrazol-4-yl]amino]pyrimidin-5-yl]phenyl]-N-[5-(trifluoromethyl)-2-pyridyl]acetamide] was tested. Which IC50 did it give?
Answer: The IC50 was 0.0001 to 10 µM.

Question: With `COCCn1cc(Nc2ncc(-c3ccc(CC(=O)Nc4cc(C(F)(F)F)ccn4)c(F)c3)cn2)cn1` [Compound P-0270, 2-[2-fluoro-4-[2-[[1-(2-methoxyethyl)pyrazol-4-yl]amino]pyrimidin-5-yl]phenyl]-N-[4-(trifluoromethyl)-2-pyridyl]acetamide] as the compound, how does the IC50 read?
Answer: Its IC50 is 0.0001 to 10 µM.

Question: With `COCCn1cc(Nc2ncc(-c3ccc(CC(=O)Nc4cnc(OC)c(C(F)(F)F)c4)cc3)cn2)cn1` [Compound P-0271, 2-[4-[2-[[1-(2-methoxyethyl)pyrazol-4-yl]amino]pyrimidin-5-yl]phenyl]-N-[6-methoxy-5-(trifluoromethyl)-3-pyridyl]acetamide] as the compound, how does the IC50 read?
Answer: The IC50 was 0.0001 to 10 µM.

Question: For `COCCn1cc(Nc2ncc(-c3ccc(CC(=O)Nc4ccc(C(F)(F)F)nc4)cc3)cn2)cn1` [Compound P-0273, 2-[4-[2-[[1-(2-methoxyethyl)pyrazol-4-yl]amino]pyrimidin-5-yl]phenyl]-N-[6-(trifluoromethyl)-3-pyridyl]acetamide], which IC50 is on record?
Answer: Its IC50 is 0.0001 to 10 µM.

Question: With `COCCn1cc(Nc2ncc(-c3ccc(CC(=O)Nc4ccc(C(F)(F)F)cn4)cc3)cn2)cn1` [Compound P-0274, 2-[4-[2-[[1-(2-methoxyethyl)pyrazol-4-yl]amino]pyrimidin-5-yl]phenyl]-N-[5-(trifluoromethyl)-2-pyridyl]acetamide] as the compound, how does the IC50 read?
Answer: The IC50 was 0.0001 to 10 µM.
